Laboratory results published in patent US20050282747A1, “Methods and compositions for wound healing” (The Research Foundation of State University of New York at …, priority 2003, published 2005).

What was measured:
NIH 3T3 fibroblasts [1] = assay: Cell proliferation on the RGD-peptide coupled HA-DTPH/PEGDA hydrogel surface (MTS assay); assay type: cell-based; settings: PEGDA 3400; for proliferation of NIH 3T3 fibroblasts on surface: in 24 h, peptide concentration in bulk 0.268 mM
Method: Cell proliferation on the RGD-peptide coupled HA-DTPH/PEGDA hydrogel surface. Peptide-coupled HA-DTPH/PEGDA hydrogels or hydrogel films in 24-well plates were rinsed 3 times with complete medium, and then CF-31 and NIH 3T3 fibroblasts were seeded on the surface of the hydrogel or hydrogel film surface at a density of 1×10^4/well. After that 1 ml of complete medium was added into each well, and the cells were cultured at 37° C. in a humidified 5% CO2 incubator and the medium was changed daily. At different time points (day 1, 2, 3 and 4), the cell number was determined by MTS assay (Cell-Titer 96 Proliferation Kit, Promega, Madison, Wis.) as previously described Shu, et al., Biomacromolecules 3:1304, 2002; Ren and Tang, Anticancer Res. 19:403, 1999) and the absorption recorded at 550 nm with an OPTI Max microplate reader (Molecular Devices). Cell numbers were obtained using standard curves generated from the assay.

NIH 3T3 fibroblasts [2] = assay: Cell proliferation inside the RGD-peptide coupled HA-DTPH/PEGDA hydrogel (MTT assay, F-DA/PI staining); assay type: cell-based; settings: NIH 3T3 encapsulated at 1×10^6/ml; day 15 compared to day 1
Method: Cell proliferation inside the RGD-peptide coupled HA-DTPH/PEGDA hydrogel. NIH 3T3 fibroblasts were suspended in 1.25% (w/v) HA-DTPH solution in complete medium (pH 7.4) at a density of 1×10^6/ml, and then 1 ml of stock peptide-coupled PEGDA or blank PEGDA solution (see hydrogel preparation) was added into 4 ml of cell/HA-DTPH mixture solution. After mixed, 200 μl of the mixture of HA-DTPH/PEG-diacrylate/T31 fibroblasts was injected into each well of 24-well plates. After 1 h, 1.0 ml of complete medium was added into each well and incubated in 37° C. 5% CO2 incubator. The medium was changed every day without damaging the hydrogel. The viability of NIH 3T3 fibroblast inside hydrogel following 1, 5 and 15 d in vitro culture was determined by a double-staining procedure (Saha, et al., Dev. Comp. Immunol. 27:351, 2003) using fluorescein diacetate (F-DA) and propidium iodide (PI). Briefly, cell-hydrogel constructs were rinsed twice with DPBS buffer, stained with F-DA (0.02 mg/ml)(Molecular Probes, Eugene, Oreg.) and PI (0.2 μg/ml)(Sigma) at room temperature for 3 min, rinsed twice with DPBS buffer, stored on ice, and observed under confocal microscope (Zeiss Axioplan 2 Imaging System, LSM 5 Pa).
The cell proliferation inside hydrogel following in vitro culture of day 1, 5, 10 and 15 was determined by MTT (3-[4,5-dimethylthiazol-2-yl]-2,5-diphenyltetrazolium bromide) assay (Sigma). A 1% MTT in serum-free media solution was added to each well containing the cell-hydrogel construct. Active mitochondria metabolize the tetrazolium salt to form an insoluble formazin dye. After 8 h of incubation, the constructs were placed in 10 ml glass vials and 2 ml 0.04 N HCl in isopropanol was added to extract the formazin. The absorbance was recorded at 550 nm with an OPTI Max microplate reader (Molecular Devices) and was converted into a cell number based on standard curves.

NIH 3T3 fibroblasts [3] = assay: Cell spreading on RGD-peptide coupled HA-DTPH/PEGDA hydrogel surface, NIH 3T3; assay type: cell-based
Method: (§1) Cell culture. Dermal fibroblasts from a person (CF-31) (Clonetics, San Diego) and NIH 3T3 fibroblast (ATCC) were routinely cultured in completed DMEM/F-12 medium supplied with 10% new-born calf serum (for NIH 3T3 fibroblast) or fetal bovine serum (for CF-31 fibroblast), 2 mM L-glutamine and 100 units/ml antibotic-antimycotic (GIBCO BRL, Life Technologies, Grand Island, N.Y.), and 50 μg/ml ascorbic acid (Sigma) at 37° C. in a humidified 5% CO2 incubator. Monolayers of fibroblasts in their growth phase (ca. 90% confluence) were dissociated with trypsin/1 mM EDTA in DPBS, centrifuged and resuspended in the serum free medium or complete medium.
Cell spreading on the RGD-peptides coupled HA-DTPH/PEGDA hydrogel surface. HA-DTPH/PEGDA hydrogels or hydrogel films in 24-well plate were rinsed with serum free medium or complete medium 3 times, and then CF-31 and NIH 3T3 fibroblasts were seeded on the surface of the hydrogel or hydrogel film surface at a density of 4×10^4/well. Then, 1 ml of serum free medium or complete medium was added into each well, and the cells were cultured at 37° C. in a humidified 5% CO2 incubator. At 2, 4, 8 and 18 h post seeding, 0.4 ml of 10% formalin solution (Sigma) was added into each well to fix cell for 15 min. The cells were then stained at room temperature with 0.1% crystal violet in 200 mM boric acid (pH 8.0) for 15 minutes. […]

CF-31 fibroblasts = assay: Cell spreading on RGD-peptide coupled HA-DTPH/PEGDA hydrogel surface, CF-31; assay type: cell-based, human; settings: for percentage of spreading cells / percentage of round cells: complete medium, 18 h post seeding
Method: as §1
Cell spreading on the RGD-peptides coupled HA-DTPH/PEGDA hydrogel surface. HA-DTPH/PEGDA hydrogels or hydrogel films in 24-well plate were rinsed with serum free medium or complete medium 3 times, and then CF-31 and NIH 3T3 fibroblasts were seeded on the surface of the hydrogel or hydrogel film surface at a density of 4×10^4/well. Then, 1 ml of serum free medium or complete medium was added into each well, and the cells were cultured at 37° C. in a humidified 5% CO2 incubator. At 2, 4, 8 and 18 h post seeding, 0.4 ml of 10% formalin solution (Sigma) was added into each well to fix cell for 15 min. The cells were then stained at room temperature with 0.1% crystal violet in 200 mM boric acid (pH 8.0) for 15 minutes. Photomicrographs of the cytoplasmic-stained cells were taken a 100×total magnification using an inverted Nikon microscope with a CCD camera on a minimum of five random fields per well (n=3 per composition). The bundled Spot 3.0 software (Diagnostic Instruments, Sterling Heights, MI) was used to classify the cell morphology into 3 categories viz. round, partially spread or fully spread as reported by Neff etc[47]. It was defined that cells with surface area <2000 pixels^2 were completely round, 2000 pixels^2 <cells with area <8000 pixels^2 had few cytoplasmic extensions although they maintained a somewhat round appearance, and cells with surface areas >8000 pixels^2 were fully spreading and had multiple cytoplasmic extensions in various directions.

NIH 3T3 fibroblasts [4] = assay: Injectable fibrous tissue regeneration in nude mouse, histology and procollagen immunohistochemistry; assay type: in vivo, nude mice
Method: RGD-peptide coupled HA-DTPH/PEGDA hydrogel for injectable fibrous tissue regeneration in nude mouse. Animal experiments were carried out according to NIH guidelines for the care and use of laboratory animals (NIH publication #85-23 rev. 1985). Male nude mice (n=12) (Simonsen Laboratories Inc., Gilroy, Calif.), 4-6 weeks old were anesthetized with 2.5% isoflurane using a VetEquip inhalation anesthesia system (Pleasanton, Calif.). NIH 3T3 fibroblasts were suspended in 1.25% (w/v) HA-DTPH solution in complete medium (pH 7.4) at a density of 50×10^6 cell/ml, and then 1 ml stock CRGDS-coupled PEGDA (peptide concentration 10/100) or blank PEGDA (see 2.4 hydrogel preparation) was added into 4 ml cell/HA-DTPH mixture solution and mixed. Each nude mouse received four 300 μl s.c. dorsal injections by means of an 18-gauge needle under the dorsal panniculus camosus (two 300 μl solution with cells and two 300 μl solution without cells as control). At each time point (4 and 8 weeks after implantation), two nude mice were sacrificed, and the implants with the surrounding tissues were removed from the mouse, fixed in 10% buffered formalin solution (Sigma) for 24 h, embedded in paraffin, cut into 5-μm sections, and mounted onto slides.
Histological and immunohistochemical staining. […]

[5] = peptide concentration in bulk 0.0054 mM
[6] = peptide concentration in bulk 0.0268 mM
[7] = peptide concentration in bulk 0.134 mM
[8] = peptide concentration in bulk 0.268 mM
[9] = PEG spacer molecular weight 3400, peptide concentration in bulk 0.268 mM

| Substance | proliferation of NIH 3T3 fibroblasts on surface (NIH 3T3 fibroblasts [1]) | cell proliferation inside the hydrogel (NIH 3T3 fibroblasts [2]) [%] | cell morphology on hydrogel surface (NIH 3T3 fibroblasts [3]; 4 and 8 h post-seeding) | cell attachment and spreading (CF-31 fibroblasts; CF-31, serum free medium) | percentage of spreading cells (CF-31 fibroblasts; [5]) [%] | percentage of spreading cells (CF-31 fibroblasts; [6]) [%] | percentage of spreading cells (CF-31 fibroblasts; [7]) [%] | percentage of spreading cells (CF-31 fibroblasts; [8]) [%] | cell density relative to cell culture polystyrene control (NIH 3T3 fibroblasts [1]; hydrogel film surface, 4 days culture, CRGDS concentration in bulk 0.268 mM) | cell area (NIH 3T3 fibroblasts [3]; at 4 and 8 h) | round cell percent (CF-31 fibroblasts; PEG spacer molecular weight 700, peptide concentration in bulk 0.268 mM) [%] | round cell percent (CF-31 fibroblasts; [9]) [%] | spreading percent of CF-31 fibroblast (CF-31 fibroblasts; [9]) [%] | percentage of round cells (CF-31 fibroblasts; [5]) [%] | percentage of round cells (CF-31 fibroblasts; [8]) [%] | fibrous tissue and procollagen versus hydrogel lacking the peptide (NIH 3T3 fibroblasts [4]; cell-seeded hydrogel, 4 weeks post-injection) | signs of biological incompatibility (necrosis or damage to the surrounding tissues) (NIH 3T3 fibroblasts [4]; s.c. injection in nude mice, gel formed in vivo) |
| --- | --- | --- | --- | --- | --- | --- | --- | --- | --- | --- | --- | --- | --- | --- | --- | --- | --- |
| CRDGS [reference compound] | no spreading or proliferation was observed | 245 | the cells were rounded | failed to promote cell spreading | – | – | – | – | – | – | – | – | – | – | – | – | – |
| CCRGDS | 1.50 fold | 253 | – | – | 8.3 | 12.4 | 36.8 | 46.5 | – | – | – | – | – | – | – | – | – |
| CRGDS | 1.64 fold | 253 | – | – | 19.1 | 31.3 | 48.2 | 53.0 | ca. 80% | larger than that for CCRGDS | 75.6 | 9.4 | 53 | 51.2 | 18 | More uniform fibrous tissue and procollagen | No signs of biological incompatibility |
